These results are taken from patent US9107894B2, “Formulation to improve gastrointestinal function” (University of Florida Research Foundation, Inc., priority 2007, dated 2015).

In one assay the test system is CINC peptide. Kind of assay: CINC peptide in gastrostomy fed (pup-in-a-cup), LPS treated rat pups. Conditions: for decrease of intestinal CINC peptide: intestine. Type of assay: in vivo. The source says:
Using the “pup-in-a-cup” rat model, protein deprivation and supplementation with GLN or GLU in the developing rat small intestine were examined. Four groups of 6-7 d old pups were fed via a gastrostomy tube providing 100% or 25% protein (relative to mother fed rats) rat milk substitute (RMS) with and without additional GLN or glutamate (GLU) for 6 d. Pups receiving the 100% protein RMS experienced better growth than the 3 groups of pups receiving the 25% protein RMS+/−GLN/GLU supplementation.
Cytokine induced neutrophil chemoattractant (CINC) is a rodent chemokine that performs neutrophil chemoattractant functions similar to IL-8 in the human. Large quantities of this proinflammatory mediator can be detrimental.
Intestinal CINC peptide in the LPS treated pups provided 100% and 25% protein was elevated about 13 fold compared to the mother reared pups. GLN and GlU decreased intestinal CINC peptide by 73 and 80%, respectively.

Another assay relates to myeloperoxidase (MPO). The assay can be described thus: Intestinal myeloperoxidase activity in gastrostomy fed, LPS treated rats. Type of assay: in vivo, rat. The text has this: An approximate 6-fold elevation of intestinal myeloperoxidase (MPO) activity in the gastrostomy fed, LPS treated rats was decreased by GLN and Glu by 92% and 54%, respectively.
The test system of a further assay is CINC mRNA. Kind of assay: CINC mRNA in small intestine by RT-PCR, protein deprived LPS treated rat pups. Type of assay: in vivo. The following applies: 25% protein-fed, densitometry. How it is done:
Cytokine induced neutrophil chemoattractant (CINC) is a rodent chemokine that performs neutrophil chemoattractant functions similar to IL-8 in the human. Large quantities of this proinflammatory mediator can be detrimental. […] To clarify the effects of diets on the CINC mRNA in small intestine, RT-PCR was performed.

The subject of assay [1] is developing rat small intestine. Kind of assay: Pup-in-a-cup rat model: growth, villus size and tight junction proteins under protein deprivation. The following applies: for villus height and area: 6-7 d old pups fed rat milk substitute for 6 d; for growth of pups: 6-7 d old pups fed rat milk substitute via gastrostomy tube for 6 d. It counts as in vivo. The source says: Using the “pup-in-a-cup” rat model, protein deprivation and supplementation with GLN or GLU in the developing rat small intestine were examined. Four groups of 6-7 d old pups were fed via a gastrostomy tube providing 100% or 25% protein (relative to mother fed rats) rat milk substitute (RMS) with and without additional GLN or glutamate (GLU) for 6 d. […] Villus size is a major component of absorptive capability. […] The tight junction proteins play an integral role in paracellular permeability of the intestinal barrier, and two of these, claudin and occludin were evaluated using Western blotting.

The subject of another assay is Caco-2 cells. The assay can be described thus: Poly (I:C) induced IL-8 production in differentiated Caco-2 cells (ELISA). It counts as cell-based, human. How it is done:
In order to determine whether DHA has an effect on inducers of inflammation other than TNFα, stimulation of another Toll-like receptor was evaluated. Polyriboinosinic polyribocytidylic acid [poly(I:C)] is a synthetic double-stranded RNA that is used experimentally to model viral infections. It has recently been identified as one of the critical stimuli for toll like receptor 3 (TLR3). The effects of n-3 PUFA on viral induced inflammation in intestinal epithelia have not been reported.
Docosahexaenoic acid (DHA, 22:6 n-3) was used as n-3 PUFA and linoleic acid (LA, 18:2 n-6) as n-6 PUFA. Differentiated Caco-2 cells were pretreated with various doses of DHA or LA for 24 hours. The cells were then treated with poly (I: C) 50 ug/ml for another 24 hours. The culture medium was collected to measure the IL-8 production by ELISA. The first experiment determined the effect of Poly (I: C) on stimulation of IL-8, a major pro-inflammatory chemokine. Poly (I:C) increased IL-8 production by 10 fold.
In general terms: ELISA stands for enzyme-linked immunosorbent assay.

Another assay relates to H4 cells. Kind of assay: TNFα-induced IL-8 production in H4 cells. Conditions: H4, 24 h pretreatment, TNF-α 1 μg/L for 24 h. It counts as cell-based, human. The method, then: EPA and DHA were used as n-3 PUFA and linoleic acid (LA, 18:2 n-6) as n-6 PUFA. The H4 and Caco-2 cells were pretreated with different doses of EPA, DHA and LA separately and in different combinations for 24 hours. Then TNF-α (1 μg/L for H4, 50 μg/L for Caco-2 cells) was added to cell culture medium and the cells were incubated for another 24 hours. The lower dose used in the H4 cell line reflects their exquisite sensitivity to inflammatory stimuli.
The effects of different doses of fatty acids on TNFα-induced IL-8 production were evaluated and are seen in FIGS. 2A-B.

The test system of a further assay is IEC-6. Kind of assay: Proliferation of rat intestinal crypt cells (IEC-6) in the absence of GLN. It counts as cell-based. Conditions: GLN synthetase inhibited cells, all treatment doses.
The next assay relates to BBDP rats. The assay can be described thus: Mortality due to diabetes in BBDP rats. Type of assay: in vivo, rat.

Procedure for IEC-6: Studies were conducted to evaluate whether glutamate, a mixture of nucleotide monophosphates, arginine, or glucosamine could support proliferation of rat intestinal crypt cells (IEC-6) in the absence of GLN.

With `NC(=O)CC[C@H](N)C(=O)O` [GLN, glutamine], in the assay on CINC peptide, the “decrease of intestinal CINC peptide” value came out at 73% and the “plasma CINC peptide” value is given as “decreased plasma CINC peptide”. For the same compound, in the assay on myeloperoxidase (MPO), the “decrease of intestinal myeloperoxidase (MPO) activity” value is recorded as 92%. Further, the “CINC mRNA expression in small intestine” value in the assay with CINC mRNA was “decreased CINC mRNA to a level similar to mother-fed animals”. Also, in assay [1], the “villus height and area” value was “did not differ”; the growth of pups entry was “neither GLN nor GLU alone can rescue the effects of protein deprivation”.
`CC/C=C\C/C=C\C/C=C\C/C=C\C/C=C\C/C=C\CCC(=O)O` [DHA, docosahexaenoic acid]: in the assay with Caco-2 cells (100 μM, 24 h pretreatment, poly (I:C) 50 ug/ml 24 h), the “decrease of poly (I:C)-induced IL-8 production” value was 75%.
Turning to `CCCCC/C=C\C/C=C\CCCCCCCC(=O)O` [LA, linoleic acid], the “poly (I:C)-induced IL-8 production” value in the assay on Caco-2 cells (doses of 50 and 100 μM, 24 h pretreatment) was “did not significantly reduce IL-8 production”. Also, the “effect on TNF-α induced IL-8 production” value in the assay with H4 cells is “greater inflammatory effects on IL-8 production in H4 than in Caco-2 cells”.
`N=C(N)NCCC[C@H](N)C(=O)O` [arginine]: the proliferation entry in the assay with IEC-6 is on record as “decrease in proliferation compared with cells treated with GLN”.
As for `N[C@H]1C(O)O[C@H](CO)[C@@H](O)[C@@H]1O` (some centres unmarked) [glucosamine], the proliferation entry with IEC-6 is reported as “decrease in proliferation compared with cells treated with GLN”.
Turning to `N[C@@H](CCC(=O)O)C(=O)O` [Glu, glutamate], the proliferation result in the assay with IEC-6 is given as “decrease in proliferation compared with cells treated with GLN”. Further, in the assay with CINC peptide, the “decrease of intestinal CINC peptide” value was 80% and the “plasma CINC peptide” value was “but not Glu decreased plasma CINC peptide”. The “decrease of intestinal myeloperoxidase (MPO) activity” value in the assay with myeloperoxidase (MPO) worked out at 54%. Further, the “CINC mRNA expression in small intestine” value in the assay on CINC mRNA was “did not show the same effect as GLN”. Also, in assay [1], the “villus height and area” value is given as “did not differ”; the growth of pups entry is “neither GLN nor GLU alone can rescue the effects of protein deprivation”.
`CCCC(=O)[O-].[Na+]` [NaB]: in the assay with BBDP rats, the “mortality due to diabetes” value was “decrease mortality due to diabetes”.
On to “Polyriboinosinic polyribocytidylic acid [Poly (I:C)]”, for which the “increase of IL-8 production” value in the assay on Caco-2 cells (poly (I:C) 50 ug/ml, 24 hours) was 10 fold.
